{
  "source": "paper PMC3454376",
  "about": "“Salidroside Improves Behavioral and Histological Outcomes and Reduces Apoptosis via PI3K/Akt Signaling after Experimental Traumatic Brain Injury” (PLoS ONE, 2012)",
  "test_system": "Bcl-2/Bax ratio",
  "assay": "Western blot, whole cell and mitochondrial fraction",
  "type": "in vivo, mice",
  "conditions": "20 mg/kg ip 10 min after CCI",
  "method": "Three sets of experiments were performed. The first set was to investigate the protective effects of salidroside. All animals were randomized into 1 of 3 groups (sham injury, CCI + vehicle, CCI + SALD 20). Surgery/injury, behavioral testing, and tissue analyses were performed by different individuals. Behavioral testing and tissue analyses were performed by individuals blinded to the treatment group. Salidroside (Cayman Chemical, Ann Arbor, MI, USA) dissolved in normal saline (0.25 mL) or a corresponding volume of vehicle (saline) was administered intraperitoneally 10 min following injury. Testing after injury was completed as follows: 1) behavioral testing at days 1, 4, 7, 14, 21, and 28 (n = 8–10 mice/group); 2) cresyl violet staining at day 28 (n = 9 mice/group); 3) histology, determination of brain water content, and western blot analysis at day 1 or 3 (n = 5–6 mice/group). To determine the optimal dose of salidroside, a pilot study was performed using 2 different doses (20 and 50 mg/kg) administered 10 min after injury, and neurological deficits and tissue damage were evaluated as the main outcomes. […] Protein concentration was determined by Bradford reagent spectrophotometrically at A595. […] The relative intensity of protein signals was normalized to the corresponding β-actin intensity and was quantified by densitometric analysis with the use of Image J software. […]",
  "data": [
    {"molecule": "OC[C@H]1O[C@@H](OCCc2ccc(O)cc2)[C@H](O)[C@@H](O)[C@@H]1O", "note": "[SALD, salidroside]", "values": [
      {"measurement": "mitochondrial Bcl-2/Bax ratio, % of the level in vehicle injured brains", "setting": "day 1, P<0.05", "value": 150.6, "unit": "%"},
      {"measurement": "whole cell Bcl-2/Bax ratio, slight increase versus vehicle", "setting": "whole cell level", "value": "did not reach statistical significance"}
    ]}
  ]
}
